# Laboratory results: US20180263985A1, “MODULATORS OF TOLL-LIKE RECEPTORS FOR THE TREATMENT OF HIV” (Gilead Sciences, Inc., priority 2015, published 2018)
# “And” between values parts separate entries of the source, which are not always exact repeats. Equal values may be shown once.
# Assays:
# [1] = tested on: HIV-specific polyfunctional CD8 T cells; experiment: Induced HIV-specific polyfunctional CD8+ T cells in PBMC cultures from HIV-1 infected subjects on cART; format: cell-based, human; settings: for Median HIV-specific polyfunctional CD8 T cells (% proliferating CD8+ cells double positive for IFN-γ and TNF-α): HIV peptide pool, 5 subjects
# [2] = tested on: serum cytokines and chemokines; experiment: Induction of cytokines and chemokines in serum of orally dosed Rhesus macaques (Luminex); format: in vivo
# Experimental: The TLR8 modulator of Example 65 was formulated in 2% ethanol, 40% polyethylene glycol 300, and 58% 0.01 N hydrochloric acid. Oral solutions of formulations were prepared by dissolving a sufficient amount of the compound in the 2% ethanol, 40% polyethylene glycol 300, and 58% 0.01 N hydrochloric acid vehicle to arrive at 0.5, 1.5, or 5 mg/ml of Example 65. Rhesus macaques were dosed orally with 1.2 to 2 mls/kg to achieve dose levels of 1, 3, 6, or 10 mg/kg Example 65. Blood samples were collected at 2, 4, 8, 12, 24 and 48 hours postdose (FIG. 5) and allowed to clot under ambient conditions prior to centrifugation to obtain serum. The indicated cytokines and chemokines were quantified in serum with a multiplexed Luminex® assay following the manufacturer's instructions (Life Technologies). […] At 10 and 6 mg/kg, IL-12, IL-1RA and MCP-1 peaked near 10 ng/ml and IL-6 peaked at 1 ng/ml.
# [3] = tested on: PBMC cultures from HIV-1 infected subjects on cART; experiment: Induced HIV-1 expression in PBMC cultures, HIV-1 RNA in supernatant after 4 days (COBAS TaqMan HIV-1 Test); format: cell-based, human; settings: for N with ≥2-Fold-Activation: subjects; for Fold HIV-1 Activation: vs DMSO; for Geometric Mean with ≥2-Fold-Activation / Range with ≥2-Fold-Activation: N = 5
# Experimental: In some experiments, IL-15, the TLR8 modulating compound of Example 15 or the combination of IL-15 and Example 15 were used at the indicated concentrations (Table 4). The cultures were maintained in the presence of antivirals (elvitegravir and efavirenz at 100 nM each) to prevent viral spread and amplification in order to measure the quantity of virus produced (latency reversal) by the TLR8 modulating compounds. At the end of the incubation period, cell-free culture supernatants were harvested and HIV-1 RNA levels were quantified by the COBAS® AmpliPrep/COBAS®TaqMan HIV-1 Test, v2.0 (Roche).
# In each table, fold-activation is calculated as a ratio of HIV-1 RNA copies per ml of cell culture supernatants from TLR8 agonist treated samples and DMSO treated controls. Geometric mean fold-activation from three independent incubation samples for each condition of each subject's PBMCs. Values in bold indicate ≥2-fold HIV activation.
# To assess if the latency reversal induced by TLR8 agonism could further potentiate latency reversal by a separate mechanisms, we treated cells as described above with IL-15, Example 15, or a combination of IL-15 and Example 15 (Table 4).
molecule,measurement,setting,value
CCCCC(C)(CO)Nc1nc(N)nc2cc(F)cnc12 (stereo not drawn) [Example 98],Patients in whom increases in HIV-specific polyfunctional CD8 T cells were seen,[1]; 100 nM,4 of 5
same,Median HIV-specific polyfunctional CD8 T cells (% proliferating CD8+ cells double positive for IFN-γ and TNF-α),[1]; 100 nM,0.93%
same,Patients in whom increases in HIV-specific polyfunctional CD8 T cells were seen,[1]; 1000 nM,4 of 5
same,Fold increase of median HIV-specific polyfunctional CD8 T cells,"[1]; 1000 nM with HIV specific peptide pool vs vehicle, p<0.05",7.1 fold
same,Median HIV-specific polyfunctional CD8 T cells (% proliferating CD8+ cells double positive for IFN-γ and TNF-α),[1]; 1000 nM,0.92%
CCCC[C@](C)(CNC(C)=O)Nc1nc(N)nc2cc(Cl)cnc12 [Example 65],"Induction of cytokines associated with TLR8 activation (IL-12, IL-6, IL-1RA, MCP-1) in serum","[2]; oral 1, 3, 6, or 10 mg/kg",induced in a dose-dependent manner
same,IL-1RA peak serum concentration,[2]; oral 10 and 6 mg/kg,~10 ng/mL
same,IL-6 peak serum concentration,[2]; oral 10 and 6 mg/kg,1 ng/mL
same,IL-12 peak serum concentration,[2]; oral 10 and 6 mg/kg,~10 ng/mL
same,MCP-1 peak serum concentration,[2]; oral 10 and 6 mg/kg,~10 ng/mL
same,Time of peak serum cytokine concentrations post-dose,[2]; oral dosing,2 h
"IL-15: interleukin-15, used at 1 nM as a separate latency reversal stimulus",Subjects with ≥2-Fold-Activation (%),[3]; IL-15 1 nM,66%
same,"Fold HIV-1 Activation, Geometric Mean","[3]; IL-15 1 nM, N = 6",2.9 fold
same,N with ≥2-Fold-Activation,[3]; IL-15 1 nM,4 of 6
same,Fold HIV-1 Activation,"[3]; IL-15 1 nM, one value per subject (IDs 205-210)",1.6 fold and 2.6 fold and 3.3 fold and 4.4 fold and 6.3 fold and 1.4 fold
"CCC[C@@H](CO)Nc1nc(N)nc2cc(F)c(F)cc12 [Example 119, (S)-2-((2-amino-6,7-difluoroquinazolin-4-yl)amino)pentan-1-ol, reference compound]",Subjects with ≥2-Fold-Activation (%),[3]; 156 nM,(67) %
same,Geometric Mean with ≥2-Fold-Activation,[3]; 156 nM,4.2 fold
same,Range with ≥2-Fold-Activation,[3]; 156 nM,3.6-4.9 fold
same,N with ≥2-Fold-Activation,[3]; 156 nM,2 of 3
same,Fold HIV-1 Activation,"[3]; 156 nM, one value per subject (IDs 151-155)",3.6 fold and 4.9 fold and 0.4 fold
same,Subjects with ≥2-Fold-Activation (%),[3]; 625 nM,(60) %
same,Geometric Mean with ≥2-Fold-Activation,[3]; 625 nM,4.1 fold
same,Range with ≥2-Fold-Activation,[3]; 625 nM,3.4-4.8 fold
same,N with ≥2-Fold-Activation,[3]; 625 nM,3 of 5
same,Fold HIV-1 Activation,"[3]; 625 nM, one value per subject (IDs 151-155)",3.4 fold and 4.1 fold and 4.8 fold and 0.3 fold and 0.5 fold
same,Subjects with ≥2-Fold-Activation (%),"[3]; 2,500 nM",(100) %
same,Geometric Mean with ≥2-Fold-Activation,"[3]; 2,500 nM",3.6 fold
same,Range with ≥2-Fold-Activation,"[3]; 2,500 nM",2.2-5.2 fold
same,N with ≥2-Fold-Activation,"[3]; 2,500 nM",5 of 5
same,Fold HIV-1 Activation,"[3]; 2,500 nM, one value per subject (IDs 151-155)",4.1 fold and 4.2 fold and 3.2 fold and 5.2 fold and 2.2 fold
same,Geometric Mean with ≥2-Fold-Activation,"[3]; 156, 625, or 2500 nM",4.1 fold
same,Range with ≥2-Fold-Activation,"[3]; 156, 625, or 2500 nM",2.2-5.2 fold
same,N with ≥2-Fold-Activation,"[3]; 156, 625, or 2500 nM",5 out of 5 and 5 of 5
